Measured values from PubChem BioAssay (NCI).
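These data come from cells grown in 96-well plates and exposed to compound for 48 hours at five concentrations. Abbreviation: GI50, concentration required for 50% inhibition of growth. TGI denotes the concentration required for complete inhibition of growth.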

Tests used:
Assay in all cases: NCI anticancer screen, dose series, 48 h
UO-31 renal = tested on: UO-31 renal
U251 CNS = tested on: U251 CNS
RPMI-8226 leukemia = tested on: RPMI-8226 leukemia
NCI/ADR-RES ovarian = tested on: NCI/ADR-RES ovarian
CCRF-CEM leukemia = tested on: CCRF-CEM leukemia
HS 578T breast = tested on: HS 578T breast
SK-MEL-28 melanoma = tested on: SK-MEL-28 melanoma
HOP-62 NSCLC = tested on: HOP-62 NSCLC
T-47D breast = tested on: T-47D breast
A498 renal = tested on: A498 renal
HCT-116 colon = tested on: HCT-116 colon
NCI-H226 lung = tested on: NCI-H226 lung
MCF7 breast = tested on: MCF7 breast
CAKI-1 renal = tested on: CAKI-1 renal
EKVX NSCLC = tested on: EKVX NSCLC
TK-10 renal = tested on: TK-10 renal
UACC-62 melanoma = tested on: UACC-62 melanoma
OVCAR-5 ovarian = tested on: OVCAR-5 ovarian
ACHN renal = tested on: ACHN renal
MDA-MB-231 breast = tested on: MDA-MB-231 breast
OVCAR-3 ovarian = tested on: OVCAR-3 ovarian
MOLT-4 leukemia = tested on: MOLT-4 leukemia
SNB-19 CNS = tested on: SNB-19 CNS
BT-549 breast = tested on: BT-549 breast
KM12 colon = tested on: KM12 colon
SF-539 CNS = tested on: SF-539 CNS
MDA-MB-435 = tested on: MDA-MB-435
A549 NSCLC = tested on: A549 NSCLC
SF-295 CNS = tested on: SF-295 CNS
HL-60(TB) leukemia = tested on: HL-60(TB) leukemia
HCC-2998 colon = tested on: HCC-2998 colon
OVCAR-4 ovarian = tested on: OVCAR-4 ovarian
SF-268 CNS = tested on: SF-268 CNS
SNB-75 CNS = tested on: SNB-75 CNS
SK-MEL-2 melanoma = tested on: SK-MEL-2 melanoma
RXF 393 renal = tested on: RXF 393 renal
UACC-257 melanoma = tested on: UACC-257 melanoma
HT29 colon = tested on: HT29 colon
IGROV1 ovarian = tested on: IGROV1 ovarian
HCT-15 colon = tested on: HCT-15 colon
COLO 205 colon = tested on: COLO 205 colon
OVCAR-8 ovarian = tested on: OVCAR-8 ovarian
786-0 renal = tested on: 786-0 renal
PC-3 prostate = tested on: PC-3 prostate
NCI-H460 lung = tested on: NCI-H460 lung
SK-OV-3 ovarian = tested on: SK-OV-3 ovarian
K-562 leukemia = tested on: K-562 leukemia
DU-145 prostate = tested on: DU-145 prostate
SR leukemia = tested on: SR leukemia
HOP-92 NSCLC = tested on: HOP-92 NSCLC

## Fc1ccc(-c2cc3nc(C(Cl)Cl)nc(-c4ccccc4)n3n2)cc1
UO-31 renal
  GI50: 1730 nM
  TGI: 4200 nM
U251 CNS
  GI50: 984 nM
  TGI: 2590 nM
RPMI-8226 leukemia
  GI50: 2200 nM
  TGI: 10000 nM
NCI/ADR-RES ovarian
  GI50: 1430 nM
  TGI: 6210 nM
CCRF-CEM leukemia
  GI50: 6500 nM
  TGI: > 100000 nM
HS 578T breast
  GI50: 3010 nM
  TGI: 9190 nM
SK-MEL-28 melanoma
  GI50: 2010 nM
  TGI: 3810 nM
HOP-62 NSCLC
  GI50: 1480 nM
  TGI: 3720 nM
T-47D breast
  GI50: 1860 nM
  TGI: 5990 nM
A498 renal
  GI50: 1810 nM
  TGI: 3550 nM
HCT-116 colon
  GI50: 1680 nM
  TGI: 4840 nM
NCI-H226 lung
  GI50: > 100000 nM
  TGI: > 100000 nM
MCF7 breast
  GI50: 673 nM
  TGI: 7370 nM
CAKI-1 renal
  GI50: 1820 nM
  TGI: 6200 nM
EKVX NSCLC
  GI50: 2040 nM
  TGI: 5580 nM
TK-10 renal
  GI50: 2130 nM
  TGI: 5260 nM
UACC-62 melanoma
  GI50: 2470 nM
  TGI: 8120 nM
OVCAR-5 ovarian
  GI50: 2290 nM
  TGI: 6770 nM
ACHN renal
  GI50: 777 nM
  TGI: 3020 nM
MDA-MB-231 breast
  GI50: 1760 nM
  TGI: 5760 nM
OVCAR-3 ovarian
  GI50: 1530 nM
  TGI: 3100 nM
MOLT-4 leukemia
  GI50: 3180 nM
  TGI: > 100000 nM
SNB-19 CNS
  GI50: 1580 nM
  TGI: 6600 nM
BT-549 breast
  GI50: 5440 nM
  TGI: > 100000 nM
KM12 colon
  GI50: 1590 nM
  TGI: 4720 nM
SF-539 CNS
  GI50: 1970 nM
  TGI: 5120 nM
MDA-MB-435
  GI50: 1810 nM
  TGI: 3770 nM
A549 NSCLC
  GI50: 1100 nM
  TGI: 2600 nM
SF-295 CNS
  GI50: 2210 nM
  TGI: 5630 nM
HL-60(TB) leukemia
  GI50: 507 nM
  TGI: 74600 nM
HCC-2998 colon
  GI50: 1180 nM
  TGI: 2550 nM
OVCAR-4 ovarian
  GI50: 2150 nM
  TGI: 7320 nM
SF-268 CNS
  GI50: 1810 nM
  TGI: 5210 nM
SNB-75 CNS
  GI50: 7550 nM
  TGI: > 100000 nM
SK-MEL-2 melanoma
  GI50: 4460 nM
  TGI: > 100000 nM
RXF 393 renal
  GI50: 1210 nM
  TGI: 2550 nM
UACC-257 melanoma
  GI50: 2110 nM
  TGI: 4230 nM
HT29 colon
  GI50: 737 nM
  TGI: 2670 nM
IGROV1 ovarian
  GI50: 4080 nM
  TGI: > 100000 nM
HCT-15 colon
  GI50: 1350 nM
  TGI: 6430 nM
COLO 205 colon
  GI50: 1150 nM
  TGI: 2500 nM
OVCAR-8 ovarian
  GI50: 1410 nM
  TGI: 3870 nM
786-0 renal
  GI50: 6330 nM
  TGI: > 100000 nM
PC-3 prostate
  GI50: 1750 nM
  TGI: 4390 nM
NCI-H460 lung
  GI50: 513 nM
  TGI: 2070 nM
SK-OV-3 ovarian
  GI50: 2190 nM
  TGI: 5130 nM
K-562 leukemia
  GI50: 2580 nM
  TGI: > 100000 nM
DU-145 prostate
  GI50: 411 nM
  TGI: 2330 nM
SR leukemia
  GI50: 2170 nM
  TGI: > 100000 nM
HOP-92 NSCLC
  GI50: 1900 nM
  TGI: 4810 nM
